Test results as given in patent publication US7332479B2, “Extracellular NAD+ and cADPR as potent anti-inflammatory agents” (University of Pittsburgh - of the Commonwealth System of …, priority 2003, dated 2008).

What was measured:
[1] = system: Caco-2 human enterocyte-like cells; test: Paracellular permeability of Caco-2 monolayers, apical-to-basolateral clearance of FD4, cytomix; type: cell-based
Procedure: Cell Culture. Caco-2 human enterocyte-like cells were routinely maintained at 37° C. in DMEM with 10% FBS, as described by Han et al. ^9 All cells were fed by changing the cell culture medium twice per week. For experiments, cells were grown on Transwell inserts (0.4 μm pore size; Corning Costar Corp., Cambridge, Mass.) and used 14-17 days post-confluence. […] Caco-2 monolayers growing on permeable supports were left untreated or exposed to cytomix for 24 or 48 h in the absence or presence of graded concentrations of NAD^+ or adenosine. Paracellular permeability was determined by measuring the apical-to-basolateral flux of FD4. Epithelial permeability was unaffected when monolayers were incubated with NAD^+ alone. Exposing Caco-2 cells to cytomix increased the clearance of FD4 across the monolayers (FIG. 1A). Addition of NAD^+ ameliorated cytomix-induced epithelial hyperpermeability in a concentration-dependent manner. […] NAD^+ is structurally related to a nucleoside, adenosine, that is known to exert anti-inflammatory effects by binding to certain purinergic receptors;^24 accordingly, the possibility that activation of a receptor for adenosine was responsible for the amelioration of cytokine-induced hyperpermeability by NAD^+ was considered. To investigate this idea, Caco-2 monolayers were exposed to cytomix in the absence or presence of 10 μmol/L adenosine (FIG. 1A).

[2] = system: occludin and ZO-1 in Caco-2 cells; test: ZO-1 and occludin in NP-40-insoluble fraction, immunoprecipitation and Western blot, Caco-2 cells exposed to cytomix; type: cell-based, human
NF-κB [3] = test: NF-κB DNA binding by electrophoretic mobility shift assay, Caco-2 cells exposed to cytomix; type: cell-based, human
Procedure: Electrophoretic mobility shift assay (EMSA). Nuclear extracts were prepared and analyzed as described.^23 However, 38.3 μL of 10% NP-40 was used to lyse the cells, the nuclei were isolated by centrifugation at 310 g for 3 min, and the nuclear pellets were resuspended in 80 μL of Buffer II.
iNOS induction is dependent, in part, on activation of the transcription factor NF-κB, a transcription factor that is required for a variety of monocyte inflammatory responses, e.g., to LPS. Therefore, we tested the ability of NAD^+ to inhibit DNA binding by NF-κB in Caco-2 cells exposed to cytomix. […] NAD^+ alone had no effect on the nuclear levels of NF-κB.

mouse ileal mucosa = test: Ileal mucosal permeability to FD4 (ex vivo everted gut sac) in LPS-injected mice; settings: LPS 17 mg/kg IP, two 132 mg/kg doses (IV then IP 12 h later), ileum at 18 h
Procedure: Animals. This research complied with regulations regarding animal care as published by the National Institutes of Health and was approved by the Institutional Animal Use and Care Committee of the University of Pittsburgh. Male 7-8 week old C57Bl/6J mice weighing 20-25 g were from Jackson Laboratories (Bar Harbor, Me.). To induce a systemic inflammatory response, mice were injected intraperitoneally (IP) with Escherichia coli (strain O111:B4) LPS (17 mg/kg) dissolved in 1.0 ml of PBS. Control animals were injected with a similar volume of PBS. Some mice were treated with an intravenous (IV) injection (100 μL) of either PBS or 132 mg/kg NAD^+ in PBS given 5 min before LPS or PBS injection, and this injection was repeated IP 12 h later. Groups of mice were anesthetized with 60-90 mg/kg sodium pentobarbital 18 h after the first injection with PBS or LPS. Segments of ileum were harvested to assess mucosal permeability to FD4 using an ex vivo everted gut sac method as previously described.^20
In the setting of systemic inflammation, circulating blood monocytes often encounter lipopolysaccharide (LPS), a potent inflammatory molecule derived from the outer surface of Gram-negative bacteria. […]

[4] = system: inducible nitric oxide synthase (iNOS) mRNA; test: iNOS mRNA expression by RT-PCR in Caco-2 cells exposed to cytomix; type: cell-based, human; settings: biphasic response
Procedure: (§1) Measurement of NO. production and iNOS gene expression. NO. production^21 was measured and RT-PCR ^22 for iNOS mRNA and 18S RNA were performed as described. The gels were captured using an imaging workstation (NucleoVision), and quantified with GelExpert™ 3.5. Relative expression of iNOS is reported after normalizing for 18S loading in FIG. 4B.
(§2) Accordingly, it was determined whether NAD^+ decreased the production of NO. (as assessed by measuring NO2^− and NO3^− in culture supernatants) by Caco-2 cells exposed to cytomix (similar study using RAW monocyte-like cells is not shown). […] Again, there was a biphasic response to NAD^+ treatment; provided maximal inhibition and higher doses inhibited less well. Thus, another inflammatory response, namely the induction of iNOS gene expression and the concomitant production of NO., is blocked by extracellular NAD^+ in both myeloid and epithelial cells.

Caco-2 cells = test: Immunofluorescence microscopy of ZO-1 and occludin localization in Caco-2 cells exposed to cytomix; type: cell-based, human; settings: cytomix 48 h, 10 μmol/L added at 0 and 24 h
Procedure: Immunofluorescence. All procedures were performed at 0-4° C. as described.^9 Caco-2 cells growing on 24 well clear Transwell inserts were fixed and stained with a mouse anti-ZO-1 monoclonal antibody (mAb; BD Translabs, Franklin Lakes, N.J.) and rabbit an anti-occludin polyclonal antibody diluted 1:100. The secondary antibodies were 5 μg/mL FITC-conjugated affinity-purified donkey anti-mouse IgG and 15 μg/mL TRITC-conjugated affinity-purified goat anti-rabbit IgG (Jackson ImmunoResearch Laboratories).
Immunofluorescence microscopy was used to assess the structure of TJs in Caco-2 cells grown on Transwells. The cells were either left untreated (FIG. 3; Panel CON) or exposed to cytomix for 48 h in the absence (Panel C48) or presence (Panel N10) of extracellular NAD^+ (10 μmol/L added at 0 and 24 h). The cells were permeabilized, fixed, and stained using FITC- and TRITC-conjugated antibodies directed against ZO-1 and occludin, respectively. In control confluent Caco-2 monolayers, these proteins both were predominantly localized to regions near cell-cell boundaries. Staining was even and continuous. Following treatment with cytomix, dispersed lesions appeared throughout the monolayer, in which immunostaining for ZO-1 at cell boundaries became faint, diffuse, and discontinuous. Exposure to cytomix also was associated with “ruffling” of ZO-1 and occludin immunostaining. […]

[5] = system: NO. production by Caco-2 cells; test: NO. production (NO2- and NO3- in culture supernatants) by Caco-2 cells exposed to cytomix; type: cell-based, human
Procedure: as §1, §2

[6] = system: mice challenged with a lethal dose of Escherichia coli O111:B4 LPS; test: LPS-induced mortality in mice; type: in vivo; settings: LPS 17 mg/kg; intravenous and intraperitoneal, 1 mg/kg pre-treatment then 1 mg/kg every 6 h for five more doses
TNF-α = test: LPS-induced TNF-α release from RAW cells, ELISA; type: cell-based, mouse; settings: 1 μM
Procedure: Whether NAD^+ could prevent the production of tumor necrosis factor α (TNF-α), a potent proinflammatory cytokine produced by activated monocytes and macrophages, was tested. Supernatants were collected from RAW cells treated with LPS in the absence or presence of NAD^+. TNF-α levels were quantitated by ELISA.

NF-κB [7] = test: Nuclear NF-κB levels by electrophoretic mobility shift assay, LPS-stimulated RAW 264.7 cells; type: cell-based, mouse; settings: 10 ng/ml LPS, 15 min
Procedure: Additional studies were performed to show the potent anti-inflammatory capacity of extracellular NAD^+. RAW 264.7 cells in tissue culture dishes were stimulated with LPS prepared from Escherichia coli strain 011:B4, and the activation of NF-κB was measured. Some cells were exposed to 10 ng/ml LPS in the presence of 1-100 μM NAD. Nuclear proteins were extracted from the cells 15 min after exposure to the compounds, and NF-κB levels were determined using the electrophoretic mobility shift assay.
Thus, very low doses of extracellular NAD^+ can effectively block the activation of NF-κB, an important transcription factor mobilized during an inflammatory response.

For `Nc1ncnc2c1ncn2[C@@H]1O[C@H](CO)[C@@H](O)[C@H]1O` [Adenosine, adenosine, reference compound], the “induction of hyperpermeability by cytomix” value ([1]; 10 μmol/L) was “no effect” and the “decrease in NP-40-insoluble occludin or ZO-1” value ([2]; cytomix 48 h with 10 μM) was “failed to prevent”.
For `NC(=O)c1ccc[n+]([C@@H]2O[C@H](COP(=O)([O-])OP(=O)(O)OC[C@H]3O[C@@H](n4cnc5c(N)ncnc54)[C@H](O)[C@@H]3O)[C@@H](O)[C@H]2O)c1` [NAD^+, nicotinamide adenine dinucleotide], the “cytomix-induced NF-κB activation” value (NF-κB [3]; 1 μmol/L, nuclear extracts 4 h) was “no effect”, the “nuclear levels of NF-κB” value (NF-κB [3]; NAD+ alone, no cytomix) was “no effect” and the “NF-κB DNA binding” value (NF-κB [3]; cytomix, 10 or 100 μmol/L, nuclear extracts 4 h) was “clearly decreased”. For the same compound, the “increase in mucosal permeability to FD4 induced by LPS” value (mouse ileal mucosa) was “significantly ameliorated”, the “cytomix-increased expression of iNOS mRNA” value [4] was “blocked this effect” and the “protection against cytomix-induced hyperpermeability” value ([1]; 10 and 100 μmol/L) was “statistically significant”. For the same compound, the cytomix-induced epithelial hyperpermeability ([1]; cytomix 24 or 48 h, graded concentrations, concentration-dependent) was “ameliorated”, the “Epithelial permeability (FD4 flux)” value ([1]; monolayers incubated with NAD+ alone, no cytomix) was “unaffected” and the “staining of ZO-1 and occludin at cell-cell boundaries” value (Caco-2 cells) was “continuous staining”. The “concentration giving maximal inhibition of NO. production” value ([5]; cytomix) was 100 µmol/L, the “inhibition of NO. production” value ([5]; cytomix, 1000 μmol/L compared with 100 μmol/L) was “inhibition was decreased” and the “cytomix-increased production of NO.” value ([5]; graded concentrations) was “inhibited in a concentration-dependent manner”. For the same compound, the mortality [6] was “completely prevented mortality”, the “occludin and ZO-1 in NP-40-insoluble complexes” value ([2]; cytomix 48 h with 10 or 100 μmol/L) was “normal levels of these proteins were present” and the “LPS-induced release of TNF-α” value (TNF-α) was “partially blocked”. For the same compound, the “nuclear localization of NF-κB” value (NF-κB [7]; 1 μM) was “dramatically decreased” and the “nuclear NF-κB levels” value (NF-κB [7]; 100 μM) was “near baseline levels”.
With `Nc1ncnc2c1ncn2[C@@H]1O[C@H](COP(=O)(O)OP(=O)(O)OC[C@H]2OC(O)[C@H](O)[C@@H]2O)[C@@H](O)[C@H]1O` (some centres unmarked) [ADP-ribose] the expression of occludin ([2]; cytomix, co-incubation with 10 or 100 μmol/L) was “failed to preserve occludin expression”.
